Values of other authors in patent US4933445A, “Heteroazabenzobicyclic carboxamide 5-HT3 antagonists” (Rorer Pharmaceutical Corporation, priority 1988, dated 1990).

Tested on: 5-HT3 receptor
Settings: becomes more prominent at higher doses

**Q.** With CCN(CC)CCNC(=O)c1cc(Cl)c(N)cc1OC [Metoclopramide] as the molecule, how does the 5-HT3-antagonist activity read?
**A.** The 5-HT3-antagonist activity was “weak”.
